This assay relates to CD2F1 mice, L1210 leukemia ip, survival T/C. As to the kind of experiment: NCI In Vivo Anticancer Drug Screen. Data for tumor model L1210 Leukemia (intraperitoneal) in CD2F1 (CDF1) mice. To be noted: higher = longer survival. The procedure, abridged: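 Activity against a transplanted murine tumor was judged by comparing the compound group with a vehicle group. The outcome in the treated animals was divided by that in the controls.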

Where [1] appears, read: endpoint: mean survival time, dose: 100.0 mg/kg/injection, schedule: Q01DX009 (ip), vehicle: saline.
Where [2] appears, read: endpoint: mean survival time, dose: 200.0 mg/kg/injection, schedule: Q01DX009 (ip), vehicle: saline.
The mark [3] stands for this setting: endpoint: mean survival time, dose: 400.0 mg/kg/injection, schedule: Q01DX009 (ip), vehicle: saline.
Setting [4] is: endpoint: mean survival time, dose: 100.0 mg/kg/injection, schedule: Q04DX003 (ip), vehicle: saline with Tween-80.
Where [5] appears, read: endpoint: mean survival time, dose: 200.0 mg/kg/injection, schedule: Q04DX003 (ip), vehicle: saline with Tween-80.
Where [6] appears, read: endpoint: mean survival time, dose: 400.0 mg/kg/injection, schedule: Q04DX003 (ip), vehicle: saline with Tween-80.

Where “and” joins values, the source holds several entries; their conditions need not be identical. Identical values can stand only once. Inconclusive results and toxic doses are left out. Residues, ends and D or L forms follow the SMILES beside them. *: point of attachment. Trt = c1ccc(C(c2ccccc2)(c2ccccc2)*)cc1; Boc = CC(C)(C)OC(=O)*

Take `Nc1ncnc2c1ncn2C1OC(COP(=O)(O)O)C(O)C1O` (stereo not given): the T/C runs as follows: (endpoint: mean survival time, dose: 9.4 mg/kg/injection, schedule: Q03HX016 (ip), vehicle: water) 106 % of control; (endpoint: mean survival time, dose: 9.4 mg/kg/injection, schedule: Q03HX024 (ip), vehicle: water) 109 % of control; (endpoint: mean survival time, dose: 12.5 mg/kg/injection, schedule: Q01DX009 (ip), vehicle: saline) 98 % of control; (endpoint: mean survival time, dose: 12.5 mg/kg/injection, schedule: Q01DX009 (ip), vehicle: water) 103 % of control; (endpoint: mean survival time, dose: 18.8 mg/kg/injection, schedule: Q03HX016 (ip), vehicle: water) 110 % of control; (endpoint: mean survival time, dose: 18.8 mg/kg/injection, schedule: Q03HX024 (ip), vehicle: water) 107 % of control. The T/C runs as follows: (endpoint: mean survival time, dose: 25.0 mg/kg/injection, schedule: Q01DX009 (ip), vehicle: saline) 104 % of control; (endpoint: mean survival time, dose: 25.0 mg/kg/injection, schedule: Q01DX009 (ip), vehicle: water) 107 % of control; (endpoint: mean survival time, dose: 27.5 mg/kg/injection, schedule: Q03DX024 (ip), vehicle: saline) 107 % of control; (endpoint: mean survival time, dose: 27.5 mg/kg/injection, schedule: Q04DX003 (ip), vehicle: saline) 105 % of control; (endpoint: mean survival time, dose: 36.7 mg/kg/injection, schedule: Q03DX024 (ip), vehicle: saline) 115 % of control; (endpoint: mean survival time, dose: 36.7 mg/kg/injection, schedule: Q04DX003 (ip), vehicle: saline) 103 % of control. The T/C was 114 % of control (endpoint: mean survival time, dose: 37.5 mg/kg/injection, schedule: Q03HX016 (ip), vehicle: water); 113 % of control (endpoint: mean survival time, dose: 37.5 mg/kg/injection, schedule: Q03HX024 (ip), vehicle: water); 100 % of control (endpoint: mean survival time, dose: 50.0 mg/kg/injection, schedule: Q01DX009 (ip), vehicle: saline); 109 % of control (endpoint: mean survival time, dose: 50.0 mg/kg/injection, schedule: Q01DX009 (ip), vehicle: water); 112 % of control (endpoint: mean survival time, dose: 55.0 mg/kg/injection, schedule: Q03DX024 (ip), vehicle: saline); 104 % of control (endpoint: mean survival time, dose: 55.0 mg/kg/injection, schedule: Q04DX003 (ip), vehicle: saline). Besides, the T/C runs as follows: (endpoint: mean survival time, dose: 73.3 mg/kg/injection, schedule: Q03DX024 (ip), vehicle: saline) 118 % of control; (endpoint: mean survival time, dose: 73.3 mg/kg/injection, schedule: Q04DX003 (ip), vehicle: saline) 106 % of control; (endpoint: mean survival time, dose: 75.0 mg/kg/injection, schedule: Q03HX016 (ip), vehicle: water) 115 % of control; (endpoint: mean survival time, dose: 75.0 mg/kg/injection, schedule: Q03HX024 (ip), vehicle: water) 118 % of control; under setting [1], 102 % of control; (endpoint: mean survival time, dose: 100.0 mg/kg/injection, schedule: Q01DX009 (ip), vehicle: water) 115 % of control. Moreover, the T/C by setting is: under setting [2], 102 % of control and 108 % of control; (endpoint: mean survival time, dose: 200.0 mg/kg/injection, schedule: Q01DX009 (ip), vehicle: water) 119 % of control; (endpoint: mean survival time, dose: 315.0 mg/kg/injection, schedule: Q01DX009 (ip), vehicle: saline) 106 % of control; (endpoint: mean survival time, dose: 375.0 mg/kg/injection, schedule: Q03HX024 (ip), vehicle: saline) 156 % of control; under setting [3], 114 % of control and 102 % of control; (endpoint: mean survival time, dose: 470.0 mg/kg/injection, schedule: Q01DX009 (ip), vehicle: saline) 110 % of control. In addition, the T/C is 112 % of control (endpoint: mean survival time, dose: 700.0 mg/kg/injection, schedule: Q01DX009 (ip), vehicle: saline); 122 % of control (endpoint: mean survival time, dose: 800.0 mg/kg/injection, schedule: Q01DX009 (ip), vehicle: saline); 102 % of control (endpoint: median survival time, dose: 20.0 mg/kg/injection, schedule: Q01DX009 (ip), vehicle: water); 105 % of control and 107 % of control (endpoint: median survival time, dose: 40.0 mg/kg/injection, schedule: Q01DX009 (ip), vehicle: water); 124 % of control and 108 % of control (endpoint: median survival time, dose: 80.0 mg/kg/injection, schedule: Q01DX009 (ip), vehicle: water); 117 % of control (endpoint: median survival time, dose: 160.0 mg/kg/injection, schedule: Q01DX009 (ip), vehicle: water).
With `Cc1ccc(NC(=O)CI)cc1`, where the note is “endpoint: mean survival time, dose: 100.0 mg/kg/injection, schedule: Q04DX002 (ip), vehicle: other”, the T/C is 102 % of control.
For the molecule `CC(=O)OCC1OC(OC(C)=O)C([NH-])C(OC(C)=O)C1OC(C)=O.CC(=O)OCC1OC(OC(C)=O)C([NH-])C(OC(C)=O)C1OC(C)=O.[Cl][Pt+2][Cl]` (stereo not given), the T/C runs as follows: (endpoint: mean survival time, dose: 12.5 mg/kg/injection, schedule: Q04DX003 (ip), vehicle: saline) 98 % of control; (endpoint: mean survival time, dose: 25.0 mg/kg/injection, schedule: Q04DX003 (ip), vehicle: saline) 93 % of control; (endpoint: mean survival time, dose: 50.0 mg/kg/injection, schedule: Q04DX003 (ip), vehicle: saline) 95 % of control; (endpoint: mean survival time, dose: 100.0 mg/kg/injection, schedule: Q04DX003 (ip), vehicle: saline) 90 % of control; (endpoint: mean survival time, dose: 200.0 mg/kg/injection, schedule: Q04DX003 (ip), vehicle: saline) 95 % of control.
Take `CCOC(=O)CN(c1c(C)cc([N+](=O)[O-])c2ccccc12)S(=O)(=O)c1ccccc1`: the T/C by setting is: (endpoint: mean survival time, dose: 100.0 mg/kg/injection, schedule: Q01DX001 (ip), vehicle: saline with Tween-80) 97 % of control; (endpoint: mean survival time, dose: 200.0 mg/kg/injection, schedule: Q01DX001 (ip), vehicle: saline with Tween-80) 94 % of control; (endpoint: mean survival time, dose: 400.0 mg/kg/injection, schedule: Q01DX001 (ip), vehicle: saline with Tween-80) 96 % of control.
Take `CC(=O)N=C1C=C(NC(C)=O)C(=O)c2ncccc21`: the T/C (endpoint: mean survival time, dose: 6.25 mg/kg/injection, schedule: Q04DX002 (ip), vehicle: saline with Tween-80) is 95 % of control; the T/C (endpoint: mean survival time, dose: 12.5 mg/kg/injection, schedule: Q04DX002 (ip), vehicle: saline with Tween-80) is 119 % of control; the T/C (endpoint: mean survival time, dose: 25.0 mg/kg/injection, schedule: Q04DX002 (ip), vehicle: saline with Tween-80) was 119 % of control.
For the molecule `[NH-]c1ccccc1C(=O)O.[NH-]c1ccccc1C(=O)O.[Ni+2]`, the T/C reads like this: under setting [4], 93 % of control; under setting [5], 107 % of control.
As to `CC(C)(C)OC(=O)NCCCCC(NC(=O)CNC(=O)C(CSC(c1ccccc1)(c1ccccc1)c1ccccc1)NC(=O)OC(C)(C)C)C(=O)O` (stereo not given) (Boc-Cys(Trt)-Gly-Lys(Boc)-OH; configuration not given here), the T/C (endpoint: mean survival time, dose: 100.0 mg/kg/injection, schedule: Q04DX003 (ip), vehicle: saline sonified) was 86 % of control.
As for `NC(CS)=NCCc1nc2ccccc2[nH]1`, the T/C is, setting by setting: (endpoint: mean survival time, dose: 6.25 mg/kg/injection, schedule: Q04DX002 (ip), vehicle: saline) 96 % of control; (endpoint: mean survival time, dose: 12.5 mg/kg/injection, schedule: Q04DX002 (ip), vehicle: saline) 93 % of control; (endpoint: mean survival time, dose: 25.0 mg/kg/injection, schedule: Q04DX002 (ip), vehicle: saline) 96 % of control and 104 % of control; (endpoint: mean survival time, dose: 50.0 mg/kg/injection, schedule: Q04DX002 (ip), vehicle: saline) 106 % of control.
As to `Cc1ccc(S(=O)(=O)OCC2OCOC(COS(=O)(=O)c3ccc(C)cc3)C(OS(=O)(=O)c3ccc(C)cc3)C2OS(=O)(=O)c2ccc(C)cc2)cc1` (stereo not given), the T/C (endpoint: mean survival time, dose: 100.0 mg/kg/injection, schedule: Q04DX002 (ip), vehicle: saline with Tween-80) is 88 % of control; the T/C (endpoint: mean survival time, dose: 200.0 mg/kg/injection, schedule: Q04DX002 (ip), vehicle: saline with Tween-80) was 100 % of control; the T/C (endpoint: mean survival time, dose: 400.0 mg/kg/injection, schedule: Q04DX002 (ip), vehicle: saline with Tween-80) is 107 % of control.
For `Brc1cnc2n[nH]nc2c1`, the T/C (endpoint: mean survival time, dose: 100.0 mg/kg/injection, schedule: Q01DX001 (ip), vehicle: saline) is 109 % of control; the T/C (endpoint: mean survival time, dose: 200.0 mg/kg/injection, schedule: Q01DX001 (ip), vehicle: saline) was 97 % of control; the T/C (endpoint: mean survival time, dose: 400.0 mg/kg/injection, schedule: Q01DX001 (ip), vehicle: saline) was 97 % of control.
For `CN1C2CCC1CNC2`, the T/C under setting [4] was 103 % of control, the T/C under setting [5] was 101 % of control and the T/C under setting [6] is 103 % of control.
Consider `CCCC(O)C(C)[N+](=O)[O-]` (stereo not given), for which the T/C by setting is: under setting [1], 96 % of control; under setting [2], 106 % of control; under setting [3], 96 % of control.
Take `CCCCC1CCC(NC(=O)Nc2ccccc2)CC1` (stereo not given): the T/C was 113 % of control under setting [4], 109 % of control under setting [5] and 105 % of control under setting [6].

The record behind these values is PubChem BioAssay AID256 (DTP/NCI, 2004).
